Results on two compounds are retold here after patent US4036696A, “Preparation of antibiotics by fermentation” (priority 1976, dated 1977).

SMILES strings stand for the structures. Entries after “also recorded” stand apart in the source; their conditions may differ.

In one data set the test system is cephalosporinases. The experiment in a line: resistance to cephalosporinases / enzymatic degradation. In kind it is biochemical.
In data set [1] the test system is Proteus vulgaris (MB-838). As to the kind of experiment: disc-plate assay using Proteus vulgaris. The settings on record: read-out: concentration giving a 25 mm. zone. In kind it is cell-based.
Data set [2] relates to gram-negative and gram-positive organisms. The experiment in a line: in vivo activity against infections (in words). Details: species or system mice. The settings on record: for oral protection against infections: given orally; for in vivo gram-negative potency compared with cephalothin: in general. How it is done: (§1) Methods: The method employed in this characterization is as follows: Female white Swiss mice, average weight 20-23 grams, were infected intraperitoneally with 3-20 times the number of organisms calculated to be lethal for 50% of the infected control animals (3-20 LD50 doses). At the time of infection and again 6 hours later, therapy was given by the designated route. Controls of the virulence of the culture and the toxicity of the antibiotic for uninfected mice were included in the tests. Seven days after infection the test was considered complete and the amount of the antibiotic (I) that would be required to protect 50% of the infected and treated animals was calculated by the method of Knudsen and Curtis: J. Amer. Stat. Assoc. Vol. 42: page 282 (1947).
The method employed in these studies is the same as described above with regard to the in vivo characterization of 810A.

A further data set concerns Proteus mirabilis. As to the kind of experiment: in vivo protection of infected mice. The following applies: subcutaneous route × two doses. The procedure: as §1
(§2) The method employed in these studies is the same as described above with regard to the in vivo characterization of 810A. The results of these tests are described below in Table XIb:
(§3) Administration was by subcutaneous injection. At the completion of the test period, usually 7 days after administration, the amount of product required to protect 50% of the mice (ED50) from this otherwise fatal injection was calculated: […]

In another data set the test system is Paracolobactrum arizonae. As to the kind of experiment: in vivo protection of infected mice. The following applies: subcutaneous route × two doses. The procedure: as §1, §2, §3
Data set [3] deals with Salmonella schottmuelleri. As to the kind of experiment: in vivo protection of infected mice. The following applies: subcutaneous route × two doses. How it is done: as §1, §2, §3
Data set [4] has as its system Diplococcus pneumoniae 2400. As to the kind of experiment: in vivo protection of infected mice. The following applies: subcutaneous route × two doses. How it is done: as §1, §2, §3
The subject of the next data set is Escherichia coli. The experiment in a line: in vivo protection of infected mice. The settings on record: subcutaneous route × two doses. The procedure:
as §1, §2, §3

The next data set deals with Pasteurella multocida. As to the kind of experiment: in vivo protection of infected mice. The settings on record: subcutaneous route × two doses. How it is done:
as §1, §2, §3

A further data set has as its system Aerobacter aerogenes. The experiment in a line: in vivo protection of infected mice. The settings on record: subcutaneous route × two doses. The procedure:
as §1, §2, §3

In another data set the test system is Salmonella typhosa. The experiment in a line: in vivo protection of infected mice. The settings on record: subcutaneous route × two doses. The procedure: as §1, §2, §3
For the next data set, the system named is Proteus vulgaris. As to the kind of experiment: in vivo protection of infected mice. The settings on record: subcutaneous route × two doses. The procedure: as §1, §2, §3
The next data set concerns Klebsiella pneumoniae AD. As to the kind of experiment: in vivo protection of infected mice. The settings on record: subcutaneous route × two doses. The procedure: as §1, §2, §3
The subject of a further data set is Klebsiella pneumoniae B. The experiment in a line: in vivo protection of infected mice. The settings on record: subcutaneous route × two doses. The procedure: as §1, §2, §3
A further data set relates to Proteus morganii 3202. The experiment in a line: in vivo protection of infected mice. The following applies: subcutaneous route × two doses. How it is done:
as §1, §2, §3

Data set [5] concerns Alcaligenes viscosus (MB-12). The settings on record: 4 h.
The nature of data set [6]: isoelectric point and pH stability. The format is physicochemical.
In another data set the test system is Proteus mirabilis 241. As to the kind of experiment: bacterial inactivation. The settings on record: bacterial cells, 4 h. How it is done:
(§4) These cultures are: Escherichia coli 236, Proteus morganii 251, Proteus morganii 356 and Proteus mirabilis 241. […] In conducting the assay, individual mixtures of the organisms and one of the antibiotics were sampled after 4 hours incubation and assayed for residual antibiotic activity. The procedure is the same assay method as described above against Alcaligenes faecalis MB-9 and A. viscosus MB-12.

Data set [7] concerns Proteus morganii 356. As to the kind of experiment: bacterial inactivation. The following applies: bacterial cells, 4 h. The procedure:
as §4

Another data set relates to Proteus morganii 251. The experiment in a line: bacterial inactivation. The following applies: bacterial cells, 4 h. The procedure: as §4
The test system of the next data set is Escherichia coli 236. As to the kind of experiment: bacterial inactivation. The following applies: bacterial cells, 4 h. The procedure: as §4
The test system of data set [8] is Alcaligenes faecalis (MB-9). As to the kind of experiment: bacterial inactivation by washed cells.
The subject of data set [9] is Proteus morganii 356. As to the kind of experiment: mouse protection test, clinical isolate. The settings on record: subcutaneous route × 2 doses (average of two trials). The format is in vivo, mice. How it is done: as §1
Administration was by subcutaneous injection. At the completion of the test period, usually 7 days after administration, the amount of product required to protect 50% of the mice (ED50) from this otherwise fatal injection was calculated:
In addition to the aforementioned in vivo trials of the product, a clinical isolate of Proteus morganii 356 which is resistant to cephalosporins and capable of degrading cephalosporin C, was employed in a mouse protection test performed in the same manner as reported above.

Data set [10] deals with Alcaligenes faecalis (MB-9). The settings on record: 4 h.
Another data set deals with Salmonella. The experiment in a line: activity against Salmonella (in words). The format is cell-based.
Data set [11] relates to gram-negative and gram-positive bacteria. The experiment in a line: antibacterial activity (in words). In kind it is cell-based.
Data set [12] in a line: blood appearance and urinary excretion. The settings on record: within four hours after administration; 240 min. In kind it is in vivo.
The test system of data set [13] is Vibrio percolans (MB-1272). The experiment in a line: disc-plate assay using Vibrio percolans. The following applies: Example 9 broth after 4 days; 0.5 inch discs.

In the case of `COC(=Cc1ccc(OS(=O)(=O)O)cc1)C(=O)OCC1=C(C(=O)O)N2C(=O)[C@](NC(=O)CCC[C@@H](N)C(=O)O)(OC)[C@H]2SC1` [Ic, 7β-(D-5-amino-5-carboxyvaleramido)-3-(α-methoxy-p-sulfooxycinnamoyloxymethyl)-7-methoxy-3-cephem-4-carboxylic acid], the “resistance to enzymatic degradation compared with cephalosporin C” value in the data set on cephalosporinases is reported as “more resistant to enzymatic degradation than cephalosporin C”. Also, in data set [1], the IC (25 mm zone) was 88 µg/mL. The effectiveness against infections entry in data set [2] (administered intraperitoneally) is “effective against a variety of gram-negative and gram-positive infections”. Also, the “oral protection against infections” value in data set [2] was “protects against infections due to Proteus vulgaris”.
For the compound `CO[C@@]1(NC(=O)CCC[C@@H](N)C(=O)O)C(=O)N2C(C(=O)O)=C(COC(N)=O)CS[C@@H]21` [Antibiotic 842A], the ED50 in the data set with Proteus mirabilis amounted to 276 µg; in the data set on Paracolobactrum arizonae, 125 µg; in data set [3], 103 µg; in [4] it was 566 µg; with Escherichia coli, 200 µg; in the data set with Pasteurella multocida, 57 µg. Moreover, the ED50 in the data set with Aerobacter aerogenes is 49 µg; in the data set on Salmonella typhosa it was 34 µg; in the data set on Proteus vulgaris, 51 µg; in the data set on Klebsiella pneumoniae AD, 125 µg; in the data set with Klebsiella pneumoniae B it was 125 µg; with Proteus morganii 3202 it was 276 µg. In addition, the ED50 in the data set on Proteus morganii 356 [9] stood at 273 µg. In addition, the “Percent Inactivation After Incubation With Washed Bacterial Cells” value in data set [5] is 54.4%; in data set [10] it was 0%. In addition, the stability entry in [6] (above pH 7) is recorded as “unstable”; in data set [6] (above pH 9.0), “unstable”; in [6] (pH 1.5), “relatively stable”; in data set [6] (pH 1.5, listed as 842A) it was “stable”. Moreover, the percent inactivation in the data set with Proteus mirabilis 241 was 5%; with Proteus morganii 356 [7], 69%; in the data set with Proteus morganii 251, 80%; in the data set on Escherichia coli 236, 38%. Further, the “resistance to inactivation compared with cephalosporin C” value in [8] (A. faecalis, A. viscosus, E. coli 236, P. morganii 251 and 236 (so in the source), P. mirabilis 241) is “more resistant than cephalosporin C”. Moreover, the “stability to bacterial inactivation” value in data set [8] (compared with cephalosporin C, cephaloridine and cephalothin, certain microorganisms) is reported as “more stable than the latter against certain microorganisms”. In addition, the resistance to cephalosporinases result in the data set with cephalosporinases is “a greater resistance to cephalosporinases”. Further, the “resistance to enzymatic degradation compared with cephalosporin C” value with cephalosporinases was “more resistant to enzymatic degradation than cephalosporin C”. For the same compound, the “oral protection against infections” value in data set [2] is “protects against infections due to Paracolobactrum arizonae 3270, Proteus vulgaris 1810, and Salmonella schottmuelleri 3010”. Further, the “in vivo gram-negative potency compared with cephalothin” value in data set [2] is “greater than cephalothin”; in [2] (listed as 842A) it was “generally increased gram-negative effect and an increased potency when compared to cephalothin”. In addition, the “in vivo activity / protection against infections” value in data set [2] (mouse, in vivo) was “effectiveness in vivo on Proteus morganii and an effectiveness against the following gram-negative bacteria: Escherichia coli, Proteus vulgaris, Proteus mirabilis, Proteus morganii, Salmonella schottmuelleri, Klebsiella pneumoniae AD, Klebsiella pneumoniae B, and Paracolobactrum arizonae; also recorded: protects against infection with three species of Proteus, two of Salmonella, one strain of Escherichia coli, two of Klebsiella and also against Paracolobactrum arizonae, Aerobacter aerogenes, Pasteurella multocida and Diplococcus pneumoniae 2400”. For the same compound, the “protection from gram-negative infection compared with known antibiotics” value in data set [2] (subcutaneously to mice) is “generally more active than cephalothin; also recorded: approximately equal to cephaloridine, ampicillin and chloromycetin”. Moreover, the “activity against Salmonella species” value in the data set with Salmonella was “exhibits activity against Salmonella schottmuelleri 3010, S. gallinarum and S. typhosa”. In addition, the “antibacterial effect (in words)” value in data set [11] is “enhanced activity against gram-negative microorganisms”. The bactericidal action entry in data set [11] was “bactericidal”. Also, the development of resistance entry in data set [11] is “resistance to it develops slowly”. The “growth inhibition of gram-negative bacteria” value in data set [11] (in vitro) is “inhibits the growth of the following gram-negative bacteria: Escherichia coli, Proteus vulgaris, Alcaligenes faecalis, Brucella bronchiseptica, Salmonella gallinarum, Vibrio percolans and Xanthomonas vesicatoria”. Also, the “growth inhibition of gram-positive bacteria” value in data set [11] (in vitro) is “inhibits the growth of the following gram-positive bacteria: Staphylococcus aureus, Sarcina lutea and Bacillus subtilis”. Further, in [12], the “eliminated in the urine” value is “approximately 80%”. The compound also registered an inhibition zone in data set [13] of 33 mm.
